Results: PMC6792352, “Limited Chemical Structural Diversity Found to Modulate Thyroid Hormone Receptor in the Tox21 Chemical Library” (Environmental Health Perspectives, 2019)
Where a name gives a salt, the structure may show the parent alone.

Test: in vitro
Settings: rat, gh3-tre-luc cells

Structure (SMILES)	CC50 at 24 h (AC50 (uM) modified / 1000)	further results
CC(C)=CCO [3-Methyl-2-buten-1-ol]	> 90 µM	–
CN(C)[C@@H]1C(=O)C(C(=O)NCNCCCC[C@H](N)C(=O)O)=C(O)[C@@]2(O)C(=O)C3=C(O)c4c(O)cccc4[C@@](C)(O)[C@H]3C[C@@H]12 [Lymecycline]	> 20 µM	–
C=CC(C)(O)CCCC(C)CCCC(C)CCCC(C)C (centres unmarked) [Isophytol]	> 90 µM	–
C[C@]12C=CC(=O)N[C@@H]1CC[C@@H]1[C@@H]2CC[C@]2(C)[C@@H](C(=O)Nc3cc(C(F)(F)F)ccc3C(F)(F)F)CC[C@@H]12 [Dutasteride]	> 50 µM	–
CC[C@@H](C(=O)[C@@H](C)[C@@H](O)[C@H](C)[C@@H]1O[C@@H]([C@@H](CC)C(=O)O)CC[C@@H]1C)[C@H]1O[C@]2(C=C[C@@H](O)[C@]3(CC[C@@](C)([C@H]4CC[C@](O)(CC)[C@H](C)O4)O3)O2)[C@H](C)C[C@@H]1C [Salinomycin sodium]	0.823 µM	–
O=[N+]([O-])c1ccc(Cl)cc1 [1-Chloro-4-nitrobenzene]	–	CC50 at 24 h (AC50 (uM) modified / 1000, Tox21_110001=Tox21_202291, viability, 1 nM T3 present, 24 h): > 90 µM
Oc1ncnc2[nH]ncc12 [Allopurinol]	> 90 µM	–
CN(Cc1ccc(C(C)(C)C)cc1)Cc1cccc2ccccc12 [Butenafine]	27.3 µM	–
O=C1CCCC=CCCCCCCCCCC1 [5-Cyclohexadecen-1-one]	74.1 µM	–
CC(C)CCCCCCCOC(=O)c1ccc(C(=O)OCCCCCCCC(C)C)c(C(=O)OCCCCCCCC(C)C)c1 [Triisodecyl trimellitate]	> 80 µM	–
Nc1cc(-c2ccncc2)c[nH]c1=O [Amrinone]	> 90 µM	–
NC(=O)c1ncn([C@@H]2O[C@H](CO)[C@@H](O)[C@H]2O)c1N [Acadesine]	> 50 µM	–
CC(=O)Nc1ccc(/C=N/NC(N)=S)cc1 [Amithiozone]	> 50 µM	–
COc1cccc(N)c1 [3-Methoxyaniline]	> 90 µM	–
O=C(C(Cl)(Cl)Cl)C(Cl)(Cl)Cl [Hexachloroacetone]	> 90 µM	–
C1=Cc2ccccc2C1 [Indene]	> 90 µM	–
CCCCCCCC(=O)CC[C@@H]1[C@@H](C/C=C\CCCC(=O)OC(C)C)[C@@H](O)C[C@H]1O [Unoprostone isopropyl ester]	18 µM	–
CC(C)NC[C@@H](O)COc1cccc2ccccc12 [Dexpropranolol]	27.7 µM	–
CCCOC(=O)C(C)O (centres unmarked) [Propanoic acid,2-hydroxy-,propylester]	> 90 µM	–
CCC1(C2=NCCN2)Cc2ccccc2O1 (centres unmarked) [Efaroxan]	> 50 µM	–
Cc1c(O)cccc1O [2-Methyl-1,3-benzenediol]	> 90 µM	–

Structure (SMILES)	CC50 at 24 h (AC50 (uM) modified / 1000)	further results
NC[C@H]1CC[C@H](C(=O)Oc2ccc(CCC(=O)O)cc2)CC1 [Cetraxate hydrochloride]	> 50 µM	–
CC(N)Cc1ccc2c(c1)OCO2 (centres unmarked) [Tenamfetamine hydrochloride]	–	CC50 at 24 h (AC50 (uM) modified / 1000, Tox21_110001=Tox21_113529, viability, 1 nM T3 present, 24 h): > 50 µM
O=C(O)C(Br)CBr (centres unmarked) [2,3-Dibromopropionic acid]	–	CC50 at 24 h (AC50 (uM) modified / 1000, Tox21_110001=Tox21_200140, viability, 1 nM T3 present, 24 h): > 90 µM
O=C(O)CCCOc1ccc(Cl)cc1Cl [2,4-DB-sodium]	> 90 µM	–
Cn1cc(C(=O)[C@@H]2CCc3nc[nH]c3C2)c2ccccc21 [Ramosetron hydrochloride]	> 50 µM	–
COc1c(O[C@@H]2O[C@H](CO)[C@@H](O)[C@H](O)[C@H]2O)cc2c(c1OC)-c1ccc(SC)c(=O)cc1[C@@H](NC(C)=O)CC2 [Thiocolchicoside]	> 20 µM	–
c1cc2ccc3cccc4ccc(c1)c2c34 [Pyrene]	–	CC50 at 24 h (AC50 (uM) modified / 1000, Tox21_110001=Tox21_400063, viability, 1 nM T3 present, 24 h): > 100 µM
Clc1cccc(N2CCNCC2)c1 [1-(3-Chlorophenyl)piperazine]	–	CC50 at 24 h (AC50 (uM) modified / 1000, Tox21_110001=Tox21_110110, viability, 1 nM T3 present, 24 h): > 50 µM
CC(O)C(CO)C(C)O (centres unmarked) [3-(Hydroxymethyl)pentane-2,4-diol]	> 90 µM	–
COC(N)=O [Methyl carbamate]	> 90 µM	–
C[C@H](CS)C(=O)N1CCC[C@H]1C(=O)O [Captopril]	> 50 µM	–
Oc1c(Cl)ccc(Cl)c1Cl [2,3,6-Trichlorophenol]	> 90 µM	–
COC(=O)Cc1ccccc1 [Methyl phenylacetate]	–	CC50 at 24 h (AC50 (uM) modified / 1000, Tox21_110001=Tox21_300792, viability, 1 nM T3 present, 24 h): > 90 µM
CCNC(=S)NCC [N,N'-Diethylthiourea]	> 90 µM	–
O=C(O)CC(O)C(=O)O (centres unmarked) [Malic acid]	> 90 µM	–
CC1(C)CON(Cc2ccccc2Cl)C1=O [Clomazone]	> 90 µM	–
Cc1cc2nc(N)sc2cc1C [2-Amino-5,6-dimethylbenzothiazole]	> 90 µM	–
NC(=O)C(Cl)(Cl)Cl [2,2,2-Trichloroacetamide]	> 90 µM	–
CC(C)(C)C(O)C(Oc1ccc(Cl)cc1)n1cncn1 (centres unmarked) [Triadimenol]	> 90 µM	–
N=C(N)N1CCc2ccccc2C1 [Debrisoquin sulfate]	> 50 µM	–
CC(C)Oc1ccccc1O [2-Isopropoxyphenol]	> 90 µM	–

Structure (SMILES)	CC50 at 24 h (AC50 (uM) modified / 1000)	further results
CCCCOc1cc(C(=O)NCCN(CC)CC)c2ccccc2n1 [Dibucaine]	9.45 µM	–
Cc1cc(S(=O)(=O)O)c(N)cc1Cl [2-Amino-4-chloro-5-methylbenzenesulfonic acid]	> 90 µM	–
CCCCS(=O)(=O)N[C@@H](Cc1ccc(OCCCCC2CCNCC2)cc1)C(=O)O [Tirofiban hydrochloride monohydrate]	> 50 µM	–
c1csc(SSc2cccs2)c1 [2-Thienyl disulfide]	> 90 µM	–
O=C(/C=C/c1ccccc1)OCc1ccccc1 [Benzyl cinnamate]	> 90 µM	–
C=C(C)[C@@H]1CC=C(C)C(=O)C1 [R-(-)-Carvone]	> 90 µM	–
CCC(C)(C#N)N=NC(C)(C#N)CC (centres unmarked) [2,2'-Azobis(2-methylbutanenitrile)]	–	CC50 at 24 h (AC50 (uM) modified / 1000, Tox21_110001=Tox21_301414, viability, 1 nM T3 present, 24 h): > 90 µM
CCCCCCCCC=CCCCCCCCC1=NCCN1CCO [2-(8-Heptadecenyl)-2-imidazoline-1-ethanol]	23.2 µM	–
CN[C@@H](C)[C@H](O)c1ccccc1 [Ephedrine hydrochloride]	> 50 µM	–
O=c1[nH]sc2ccccc12 [1,2-Benzisothiazolin-3-one]	5.86 µM	–
O=C(O)CCc1ccccc1 [Hydrocinnamic acid]	> 90 µM	–
C=CCNC(N)=S [Allylthiourea]	> 90 µM	–
C=CCN1CC[C@]23CCCC[C@H]2[C@H]1Cc1ccc(O)cc13 [Levallorphan]	28.6 µM	–
CNc1cnn(-c2cccc(C(F)(F)F)c2)c(=O)c1Cl [Norflurazon]	> 90 µM	–
O=C(NCCNCC(O)COc1ccc(O)cc1)N1CCOCC1 (centres unmarked) [Xamoterol]	> 50 µM	–
O=C(c1ccccc1)c1ccc(O)cc1O [2,4-Dihydroxybenzophenone]	> 90 µM	–
CC(C)OC(=O)COc1ccc(Cl)cc1Cl [2,4-D isopropyl ester]	> 90 µM	–
NC(CO)C(=O)NNCc1ccc(O)c(O)c1O (centres unmarked) [Benserazide hydrochloride]	> 50 µM	–
CCCCN(CCCC)C(=O)N(CCCC)CCCC [1,1,3,3-Tetrabutylurea]	> 90 µM	–
CC(C)CCC[C@@H](C)[C@H]1CC(=O)C2=C3CC[C@H]4C[C@@H](O)CC[C@]4(C)[C@H]3CC[C@@]21C [Colestolone]	> 50 µM	–
CCCCCCCCCCCCC(=O)O [Tridecanoic acid]	> 90 µM	–

Structure (SMILES)	CC50 at 24 h (AC50 (uM) modified / 1000)	further results
Nc1cc(S(=O)(=O)O)ccc1S(=O)(=O)O [2-Aminobenzene-1,4-disulfonic acid]	> 90 µM	–
CN(C)[C@@H]1C(O)=C(C(=O)NCN2CCCC2)C(=O)[C@@]2(O)C(O)=C3C(=O)c4c(O)cccc4[C@@](C)(O)[C@H]3C[C@@H]12 [Rolitetracycline]	> 20 µM	–
COc1ccccc1OCC1CNC(=O)O1 (centres unmarked) [Mephenoxalone]	> 50 µM	–
O=[N+]([O-])NC1=NCCN1Cc1ccc(Cl)nc1 [Imidacloprid]	> 90 µM	–
CCCCCCCCCCCCCC[n+]1ccccc1 [Tetradecylpyridinium bromide]	6.51 µM	–
CCNC(C)Cc1cccc(C(F)(F)F)c1 (centres unmarked) [Fenfluramine]	–	CC50 at 24 h (AC50 (uM) modified / 1000, Tox21_110001=Tox21_111697, viability, 1 nM T3 present, 24 h): > 50 µM
C[C@@]12CCC[C@H]1[C@@H]1CC[C@H]3C[C@@H](O)CC[C@]3(C)[C@H]1CC2 [5alpha-Androstan-3beta-ol]	> 50 µM	–
CCCCCCCCCCCCCN1CC(C)OC(C)C1 (centres unmarked) [Tridemorph]	> 90 µM	–
CCCc1ccc(N)cc1 [4-Propylaniline]	> 90 µM	–
CCCCOC(=O)COc1ccc(Cl)cc1Cl [2,4-D 1-butyl ester]	> 90 µM	–
C=C(C)C(=O)OCCCCCCOC(=O)C(=C)C [1,6-Hexanediol dimethacrylate]	> 90 µM	–
CCCCC/C=C/C/C=C/CCCCCCCC(=O)OCC [Ethyl linoleate]	> 50 µM	–
C[C@@H]1C[C@H]2[C@@H]3CCC4=CC(=O)C=C[C@]4(C)[C@@]3(F)[C@@H](O)C[C@]2(C)[C@@]1(O)C(=O)COC(=O)c1cccc(S(=O)(=O)O)c1 [Dexamethazone metasulfobenzoate sodium]	> 50 µM	–
CCCCCCCCCCCCCCO [1-Tetradecanol]	> 90 µM	–
Clc1ccccc1-c1nnc(-c2ccccc2Cl)nn1 [Clofentezine]	> 90 µM	–
CC(C)COC(=O)COc1ccc(Cl)cc1Cl [2,4-D-isobutyl]	> 90 µM	–
NC(=O)NC(N)=O [Imidodicarbonic diamide]	> 90 µM	–
CCOc1ccc(NC(=O)CC(C)=O)cc1 [N-(4-Ethoxyphenyl)-3-oxobutanamide]	> 90 µM	–
COc1ccc(C)cc1 [1-Methoxy-4-methylbenzene]	> 90 µM	–
O=C(C1CCCCC1)N1CC(=O)N2CCc3ccccc3C2C1 (centres unmarked) [Praziquantel]	> 90 µM	–
